{"source": "patent US20110040266A1", "about": "“ANTI-INSOMNIA COMPOSITIONS AND METHODS” (priority 2007, published 2011)", "origin": "cited, not measured here", "details": "tablet form; administered from 5 hours to 1 hour before waking"}
{"smiles": "Cc1ccc(-c2nc3ccc(C)cn3c2CC(=O)N(C)C)cc1", "note": "[zolpidem, N,N,6-trimethyl-2-p-tolyl-imidazo[1,2-a]pyridine-3-acetamide]", "values": [{"measurement": "residual effects of night-time dosing", "result": "results in residual drowsiness and sleepiness"}]}
